Measured values as given in patent publication EP1914236A1 (Ortho-McNeil Pharmaceutical, Inc., priority 2002, dated 2003).

How the values were obtained:
[1] = target: T1, human B2 bradykinin receptors (Homo sapiens, UniProt P30411); test: Bradykinin B2 (BK2) Receptor Binding Assay; details: membranes of CHO-K1 cells transfected with human B2 bradykinin receptors; ~0.25 nM [3H]NPC17731; 60 min at 25°C
T1 construct: purchased Receptor Biology, Inc. (Baltimore, MD); host or cells: CHO-K1 cells transfected with the human B2 receptor (membranes)
T1 sequence (P30411 1-391): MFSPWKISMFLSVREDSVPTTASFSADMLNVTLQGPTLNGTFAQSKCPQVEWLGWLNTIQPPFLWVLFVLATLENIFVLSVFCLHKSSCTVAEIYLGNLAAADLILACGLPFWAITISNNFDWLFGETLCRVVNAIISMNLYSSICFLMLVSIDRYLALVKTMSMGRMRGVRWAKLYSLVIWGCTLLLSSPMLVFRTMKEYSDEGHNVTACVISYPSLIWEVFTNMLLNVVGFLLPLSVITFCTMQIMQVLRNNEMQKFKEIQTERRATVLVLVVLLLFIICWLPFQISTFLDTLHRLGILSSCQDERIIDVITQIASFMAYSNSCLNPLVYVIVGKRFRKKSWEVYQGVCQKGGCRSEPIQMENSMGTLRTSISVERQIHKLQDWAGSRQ
Description: Cell membranes of CHO-K1 cells transfected with human B2 bradykinin receptors (CH)-hB2) were purchased from Receptor Biology, Inc. (Baltimore,MD).
Samples were harvested on a Brandel Cell Harvester on to Wallac filtermat B sheets (96 sample format), and washed three times with 2 mL cold HEPES-buffer (10 mM, pH 7.5), and dried in a microwave oven.
The data were used to calculate either the % inhibition compared to control binding (when only a single concentration of test compound was evaluated) or a Ki value (when a range of concentrations were tested). Background was subtracted from mean cpm values and % inhibition was calculated as: [(total dpm-test compound dpm)/(total dpm-nonspecific dpm)]x100. Kd and Ki values were calculated using GraphPad PRISM data analysis program.

[2] = Graded Abdominal Irritant Test (GrAIT); type: in vivo; details: 30 minutes before kaolin (100 mg/kg intraperitoneally), responses counted for 15 minutes, dose not given
Description: The Graded Abdominal Irritant Test (GrAIT) is a modification of the methods described by Koster et al. (Koster R., Anderson M and DeBeer E. J. Fed. Proc. 1959, 18, 412). Prior to the test (30 minutes for oral or subcutaneous administration), each animal was administered a known analgesic, a test compound, or vehicle (0.05N HCl) by one of two routes (oral or subcutaneous).
Kaolin (100 mg/kg) was injected intraperitoneally (using a standard 23G needle) at a volume of 10mL/kg of body weight. Following the administration of the chemical agent, the animals were placed in glass bell jars (approximately 15cm in diameter with wood chips on the bottom). […] A contraction of the abdominal musculature and an elongation of the body, which extends through to the hindlimbs, characterize this response. The responses were counted during the 15-minute time period after the injection of the kaolin. A mechanical counter or a personal computer was used to collect the number of counts per animal, and animals were observed no more than 5 at a time.
The mean number of counts (±SEM) for a group of animals receiving a known analgesic or test compound was compared to the mean for the group of animals which received only vehicle pretreatment (Control group). For each dose, % inhibition of the response was calculated. For each test compound, the EDso value was calculated using a log dose regression analysis program (PharmTools software).

CHO-hB2 cell membranes = target: T2, CHO-hB2 cell membranes (Homo sapiens, UniProt P30411); test: [35S]GTPγS Binding Assay in CHO-hB2 Cell Membranes; type: biochemical; details: for Functional Activity (% Basal): number in parentheses, bradykinin-stimulated [35S]GTPγS binding, test concentration not given; for Functional Activity: word part of the cell, effect on bradykinin-stimulated [35S]GTPγS binding
T2 construct: purchased Receptor Biology, Inc. (Baltimore, MD); host or cells: CHO-hB2 cells (membranes)
T2 sequence (P30411 1-391): T1 sequence (P30411 1-391)
Description: CHO-hB2 cell membranes were purchased from Receptor Biology, Inc. (Baltimore,MD). 10 mg/mL of membrane protein was suspended in 10 mM TRIS-HC pH 7.2, 2 mM EDTA, 10% sucrose.
Membranes were added into 15 mL ice cold binding assay buffer. The assay buffer contained 50 mM HEPES, pH 7.6, 5 mM MgCl2, 100 mM NaCl, 1 mM DTT and 1 mM EDTA. The membrane suspension was homogenized twice with a Polytron and centrifuged at 3000 rpm for 10 min. The supernatant was then centrifuged at 18,000 rpm for 20 min. The pellet was saved in a tube and resuspended.
The pellet membranes (40 µg/mL) were preincubated with SPA (scintillation proximity assay) beads (20 mg/mL) at 25C° for 45 min in the assay buffer. The SPA beads (5 mg/mL) coupled with membranes (10 µg/mL) were then incubated with 0.5 nM [^35S]GTPγS in the same HEPES buffer containing 50 µM GDP in total volume of 200 µL. Bradykinin was used to stimulate [^35S]GTPγS binding. Varying concentrations of drugs were incubated with bradykinin to inhibit bradykinin-stimulated [^35S]GTPγS binding. The basal binding was tested in the absence of bradykinin and no specific binding was tested in the present 10 µM unlabeled GTPγS. The radioactivity was quantified on a Packard Top Count, and calculated. % of Basal = (stimulated binding-non specific binding)/(basal binding-non specific binding) × 100. [formula]

Compound	Ki [1] [nM]	% Inhibition ([2]; po)	% Inhibition ([2]; sc) [%]	Functional Activity (% Basal) (CHO-hB2 cell membranes)	Functional Activity (CHO-hB2 cell membranes)
CCn1c(CC(=O)N(C)c2ccc(C)c(COc3cccc4ccc(C)nc34)c2C)ccc1C(=O)c1ccc(C#N)cc1 [Compound 7]	48	26%	42	–	–
CCn1c(CC(=O)N(C)c2ccc(Cl)c(COc3cccc4ccc(C)nc34)c2Cl)ccc1C(=O)c1ccc(C#N)cc1 [Compound 8]	13	-11%	44	40	Antagonist
CCN(C(=O)Cc1ccc(C(=O)c2ccc(C#N)cc2)n1C)c1ccc(C)c(COc2cccc3ccc(C)nc23)c1C [Compound 16]	132	46%	58	1	No effect
CCN(C(=O)Cc1ccc(C(=O)c2ccc(Cl)nc2)n1C)c1ccc(Cl)c(COc2cccc3ccc(C)nc23)c1Cl [Compound 17]	342	-1%	47	1	No effect
Cc1ccc2cccc(OCc3c(Cl)ccc(N(C)C(=O)Cc4ccc(C(=O)c5ccncc5)n4C)c3Cl)c2n1 [Compound 60, N-[2,4-Dichloro-3-(2-methyl-quinolin-8-yloxymethyl)-phenyl]-N-methyl-2-[1-methyl-5-(pyridine-4-carbonyl)-1 H-pyrrol-2-yl]-acetamide]	400	44po %	–	–	–
Cc1ccc2cccc(OCc3c(Cl)ccc(N(C)C(=O)Cc4ccc(C(=O)c5ccc([N+](=O)[O-])cc5)n4C)c3Cl)c2n1 [Compound 63]	178	–	–	33	Antagonist
COC(=O)c1ccc(C(=O)c2ccc(CC(=O)N(C)c3ccc(Cl)c(COc4cccc5ccc(C)nc45)c3Cl)n2C)cc1 [Compound 64]	161	–	–	45	Antagonist
Cc1ccc2cccc(OCc3c(Cl)ccc(N(C)C(=O)Cc4ccc(C(=O)c5ccc([N+](=O)[O-])c(C)c5)n4C)c3Cl)c2n1 [Compound 65, N-[2,4-Dichloro-3-(2-methyl-quinolin-8-yloxymethyl)-phenyl]-N-methyl-2-[1-methyl-5-(3-methyl-4-nitro-benzoyl)-1H-pyrrol-2-yl]-acetamide]	151	–	–	35	Antagonist
Cc1ccc2cccc(OCc3c(Cl)ccc(N(C)C(=O)Cc4ccc(C(=O)c5ccccc5[N+](=O)[O-])n4C)c3Cl)c2n1 [Compound 66]	169	–	–	35	Antagonist
COc1ccc(C(=O)c2ccc(CC(=O)N(C)c3ccc(Cl)c(COc4cccc5ccc(C)nc45)c3Cl)n2C)cc1 [Compound 68]	189	–	–	4	Weak antagonist
CSc1ccc(C(=O)c2ccc(CC(=O)N(C)c3ccc(Cl)c(COc4cccc5ccc(C)nc45)c3Cl)n2C)cc1 [Compound 69]	109	–	–	41	Antagonist
Cc1ccc2cccc(OCc3c(Cl)ccc(N(C)C(=O)Cc4ccc(C(=O)c5ccc(C#N)nc5)n4C)c3Cl)c2n1 [Compound 71]	74	–	–	79	Antagonist
CC(=O)Nc1cccc(C(=O)c2ccc(CC(=O)N(C)c3ccc(Cl)c(COc4cccc5ccc(C)nc45)c3Cl)n2C)c1 [Compound 72]	85	–	–	74	Antagonist
Cc1ccc2cccc(OCc3c(Cl)ccc(N(C)C(=O)Cc4ccc(C(=O)c5ccc([S+](C)[O-])cc5)n4C)c3Cl)c2n1 (centres unmarked) [Compound 73, N-[2,4-Dichloro-3-(2-methyl-quinolin-8-yloxymethyl)-phenyl]-2-[5-(4-methanesuifinyl-benzoyl)-1-methyl-1H-pyrrol-2-yl]-N-methyl-acetamide]	64	–	–	78	Antagonist
Cc1ccc2cccc(OCc3c(C)ccc(N(C)C(=O)CCc4ccc(C(=O)c5cccs5)n4C)c3C)c2n1 [Compound 80]	141	–	–	12	Weak antagonist
Cc1ccc2cccc(OCc3c(Cl)ccc(N(C)C(=O)CCc4ccc(C(=O)c5cccs5)n4C)c3Cl)c2n1 [Compound 81]	304	–	–	1	No effect
Cc1ccc2cccc(OCc3c(C)ccc(N(C)C(=O)CCc4ccc(C(=O)c5ccncc5)n4C)c3C)c2n1 [Compound 82]	450	–	–	50	Antagonist
Cc1ccc2cccc(OCc3c(Cl)ccc(N(C)C(=O)CCc4ccc(C(=O)c5ccncc5)n4C)c3Cl)c2n1 [Compound 83]	168	–	–	45	Antagonist
Cc1ccc2cccc(OCc3c(C)ccc(N(C)C(=O)CCc4ccc(C(=O)c5cccnc5)n4C)c3C)c2n1 [Compound 84]	304	–	–	57	Antagonist
Cc1ccc2cccc(OCc3c(Cl)ccc(N(C)C(=O)CCc4ccc(C(=O)c5cccnc5)n4C)c3Cl)c2n1 [Compound 85]	15	–	–	65	Antagonist
CC(=O)Nc1ccc(C=CC(=O)NC[C@H]2CCCN2c2ccc(C)c(COc3cccc4ccc(C)nc34)c2C)cn1 [Compound 112, 3-(6-Acetytamino-pyridin-3-yl)-N-{1-[2,4-dimethyl-3-(2-methyl-quinolin-8-yloxymethyl)-phenyl]-pyrrolidin-2-(R)ylmethyl}-acrylamide.]	54	–	–	59	Antagonist
Cc1ccc2cccc(OCc3c(Cl)cc(Cl)c(N(C)C(=O)Cc4ccc(C(=O)c5ccc(Cl)nc5)n4C)c3Cl)c2n1 [Compound 117, 2-[5-(6-Chloro-pyridine-3-carbonyl)-1-methyl-1H-pyrrol-2-yl]-N-methyl-N-[2,4,6-trichloro-3-(2-methyl-quinolin-8-yloxymethyl)-phenyl]-acetamide]	86.4	–	–	35	Antagonist
